Test results as given in patent USRE32311E.
In brackets after ≈: the same amount, converted by molar mass.

Experiments:
Streptococcus pyogenes = assay: experimental bacterial infection in mice, ED50; format: in vivo; settings: two doses, subcutaneous
toxicity, LD50 in mice = format: in vivo; settings: administered intravenously
[1] = test system: Staphylococcus aureus X1.1; assay: agar-dilution MIC; format: cell-based
[2] = test system: Staphylococcus aureus X400; assay: agar-dilution MIC; format: cell-based; settings: Staphylococcus aureus X400, methicillin-resistant strain
Protocol: (§1) In Table VII activity is measured by the minimal inhibitory concentration (MIC), i.e. the lowest concentration of compound at which growth of the microorganism is inhibited by the test compound.

[3] = test system: Streptococcus Group D X66; assay: agar-dilution MIC; format: cell-based
Protocol: as §1

[4] = test system: Staphylococcus epidermidis EP12; assay: agar-dilution MIC; format: cell-based
Protocol: as §1

[5] = test system: Staphylococcus epidermidis EP11; assay: agar-dilution MIC; format: cell-based
Protocol: as §1

Staphylococcus aureus = assay: experimental bacterial infection in mice, ED50; format: in vivo; settings: two doses
[6] = test system: Staphylococcus aureus V41; assay: agar-dilution MIC; format: cell-based; settings: Staphylococcus aureus V41, penicillin-resistant strain
Protocol: as §1

[7] = test system: Streptococcus Group D 9960; assay: agar-dilution MIC; format: cell-based
[8] = test system: Streptococcus pyogenes C203; assay: agar-dilution MIC; format: cell-based
Protocol: as §1

[9] = test system: Streptococcus pneumoniae Park I; format: cell-based; settings: agar dilution
Protocol: as §1

CCC(C)CCCCCCC(=O)N[C@@H](Cc1c[nH]c2ccccc12)C(=O)N[C@@H](CC(N)=O)C(=O)N[C@@H](CC(=O)O)C(=O)N[C@@H]1C(=O)NCC(=O)N[C@@H](CCCNC(=O)CCC(=O)O)C(=O)N[C@@H](CC(=O)O)C(=O)N[C@H](C)C(=O)N[C@@H](CC(=O)O)C(=O)NCC(=O)N[C@H](CO)C(=O)N[C@@H]([C@H](C)CC(=O)O)C(=O)N[C@@H](CC(=O)c2ccccc2N)C(=O)O[C@@H]1C (stereo partly drawn) [Compound 15]
ED50 Streptococcus pyogenes Subcutaneous (Streptococcus pyogenes): 1.02 mg/kg × 2 | LD50 in Mice (toxicity, LD50 in mice): 250 mg/kg | MIC [1]: 1 µg/mL (≈ 0.576 µM) | MIC [2]: 8 µg/mL (≈ 4.61 µM) | MIC [3]: 4 µg/mL (≈ 2.31 µM) | MIC [4]: 4 µg/mL (≈ 2.31 µM) | MIC [5]: 4 µg/mL (≈ 2.31 µM) | ED50 Staphylococcus aureus Subcutaneous (Staphylococcus aureus): > 18 mg/kg × 2 | MIC [6]: 2 µg/mL (≈ 1.15 µM) | MIC [7]: 4 µg/mL (≈ 2.31 µM) | MIC [8]: 1 µg/mL (≈ 0.576 µM) | MIC [9]: 0.25 µg/mL (≈ 0.144 µM)
